Laboratory results: patent US5272155A, “(+)-2-methylpiperidine as modulator of cholinergic systems” (Abbott Laboratories, priority 1991, dated 1993)
“Also recorded” adds a separate entry of the source. Read-outs that look alike come from different tables or passages of the source.

Legend:
nicotinic receptor [1] = assay: Cortical CBF response elicited by electrical stimulation of the basal forebrain (BF) in rats; assay type: in vivo, rat; conditions: iv; for BF-Elicited CBF Response, % of Resting Cortical CBF: mean (SEM), (+) N = 5 rats, (-) N = 3 rats; for effect on BF-elicited CBF response: 0.1-3.0 mg/kg, result in words
Procedure: (§1) Methods for surgical preparations of rats for electrical stimulation of brain and measurement of cortical CBF are detailed by Linville and Arneric (1991).
(§2) Intravenous (iv) administration of (+) 2-methylpiperidine ((+)2-MP) and (-)2-MP (0.1-3.0 mg/kg) were examined for their effect on mean arterial pressure (MAP), resting CBF and increases in cortical CBF elicited by electrically stimulating the BF (.perspectiveto.25 Hz; 100 uA; 10 sec. train).

[2] = Mean arterial pressure (MAP) in rats, iv administration; assay type: in vivo, rat; conditions: for Mean Arterial Pressure (MAP): mean (SEM), (+) N = 5 rats, (-) N = 3 rats; for effect on mean arterial pressure / blood pressure: 0.1-3.0 mg/kg, result in words
Procedure: as §1, §2

Adult male CD1 mice = assay: Habituation / locomotor activity in automated activity monitors; assay type: in vivo, mouse; conditions: for locomotor activity, first 10 min after introduction to the novel environment: Saline=3680±169
Procedure: Adult male CD1 mice (n=8/group) were injected with (+)2-methylpiperidine (0, 1.0, 3.0 or 10.0 mg/kg, i.p.) immediately prior or 60 min. prior to placement in automated activity monitors (Omnitech, Columbus, Ohio). These enclosures, measuring 40×40×42 cm, are equipped with a series of photocells and generate measurements of a variety of locomotor activities.

CD1 mice [3] = assay: Mouse elevated-plus maze (conflict test, anxiolytic activity); assay type: in vivo
Procedure: FIG. 1A is a graph of time mice spend in the open arms of the elevated-plusmaze (a conflict test that probes anxiolytic activity) as a function of the dose of (-)nicotine administered to the mice.
FIG. 1B is a graph of time mice spend in the open arms of the elevated-plusmaze as a function of the administration of (+)2-methylpiperidine (0.1 mg/kg) or (-)nicotine administered separately or in combination.
The mouse elevated-plus maze is a conflict test that probes anxiolytic activity (Lister, Pyschopharmacology, 1987, 92:180). It is based on the fact that exposure of mice to an elevated open arm leads to an avoidance response considerably stronger than that evoked by exposure to an enclosed arm.
The apparatus required to perform this test is made of plexiglass and consists of two open arms (17×8 cm) and two enclosed arms (17×8×15 cm) extending from a central platform (8×8 cm). It is mounted on an opaque plexiglass base rising 39 cm above the floor. Mice are released on one of the open arms and the time spent in the open and enclosed arms is recorded during a 5 min. test period.
CD1 mice (n=8 per group) received systemic (-)nicotine injections (0, 0.03, 0.1 or 0.3 mg/kg, IP) fifteen minutes before they were allowed to explore the plus-maze for a 5 minute test period.

[4] = Hypothermia: rectal temperature of mice; assay type: in vivo, mouse; conditions: i.p.; for Rectal temperature 15 min. later: saline 38.3 ± 0.1, mean ± S.E.M.
Procedure: Adult male CD1 mice (n=5-7/group) were injected with (+)2-methylpiperidine (0, 10 or 100 mg/kg, i.p.) and rectal temperatures were assessed (YSI Model 43 TA) 15 min. later.

male CD1 mice = assay: Acute lethality in mice within 24 hours; assay type: in vivo, mouse; conditions: for Deaths in 24 hours / tolerability: i.p.; for Deaths in 24 hours: mandelic acid salt, deaths/animals; for tolerability: 30 and 100 mg/kg
Excerpt: Compounds were given as the respective mandelic acid salts.

[5] = Combined effects of (-)nicotine and (+)2-methylpiperidine on rectal temperatures of mice; assay type: in vivo, mouse; conditions: for Rectal temperature: mean ± S.E.M.
rat brain receptor sites = conditions: cited from earlier work
mouse = assay: (-)Nicotine induced mouse lethality after pretreatment; assay type: in vivo
nicotinic receptor [6] = assay: Resting cortical cerebral blood flow (CBF) in rats, iv administration; assay type: in vivo, rat; conditions: for Resting Cortical CBF, % of Resting CONTROL: mean (SEM), (+) N = 5 rats, (-) N = 3 rats; for effect on resting CBF: 0.1-3.0 mg/kg, result in words
Procedure: as §1, §2

[7] = (-)Nicotine induced mouse lethality after pretreatment; assay type: in vivo; conditions: mouse, in vivo, ip; saline pretreatment; read-out: LD50 [95% C.I.] of (-)nicotine
CD1 mice [8] = conditions: known anxiolytic drug, background of the test; cited from earlier work
[9] = 0.1 mg/kg, dose 0: (+) 153 (11), (-) 130 (8)
[10] = 0.1 mg/kg, dose 0: (+) 76 (3), (-) 90 (6)
[11] = pretreatment 10.0 mg/kg, (-)nicotine 3 mg/kg
[12] = pretreatment 10.0 mg/kg, (-)nicotine 6 mg/kg
[13] = pretreatment 10.0 mg/kg, (-)nicotine 9 mg/kg
[14] = 0.1 mg/kg, dose 0: (+) 100 (10), (-) 100 (13)

## CC1CCCCN1 (racemic) [(+)2-methylpiperidine, (+)-2-methylpiperidine]
Nicotinic receptor [1]; [9]
  BF-Elicited CBF Response, % of Resting Cortical CBF: 203 (21) %
Nicotinic receptor [1]; 0.3 mg/kg
  BF-Elicited CBF Response, % of Resting Cortical CBF: 222 (20) %
Nicotinic receptor [1]; 1.0 mg/kg
  BF-Elicited CBF Response, % of Resting Cortical CBF: 222 (23) %
Nicotinic receptor [1]; 3.0 mg/kg
  BF-Elicited CBF Response, % of Resting Cortical CBF: 220 (19) %
Nicotinic receptor [1]; listed as (+)2-MP
  effect on BF-elicited CBF response: effective in enhancing resting CBF and the BF-elicited CBF response
Nicotinic receptor [1]; listed as (+)-2MP
  effect on BF-elicited CBF response: enhanced
[2]; [10]
  Mean Arterial Pressure (MAP): 82 (6) mmHg
[2]; 0.3 mg/kg
  Mean Arterial Pressure (MAP): 87 (5) mmHg
[2]; 1.0 mg/kg
  Mean Arterial Pressure (MAP): 92 (7) mmHg
[2]; 3.0 mg/kg
  Mean Arterial Pressure (MAP): 87 (7) mmHg
[2]
  effect on mean arterial pressure / blood pressure: no overt on blood pressure
[2]; listed as (+)2-MP
  effect on mean arterial pressure / blood pressure: No remarkable effects
Adult male CD1 mice; 3.0 mg/kg, i.p., 60 min prior
  locomotor activity, first 10 min after introduction to the novel environment: 3402±164 activity counts
Adult male CD1 mice; 10 mg/kg, i.p., 60 min prior
  locomotor activity, first 10 min after introduction to the novel environment: 3349±126 activity counts
Adult male CD1 mice; 1.0, 3.0 or 10.0 mg/kg, i.p., drug-by-time interaction p<0.02
  effect on the habituation process: dose-related enhancement of the habituation process
Adult male CD1 mice; 3.0 or 10.0 mg/kg, 60 min prior, first 10 min
  effect on locomotor activity (impairment or sedation): did not significantly decrease the high level of locomotor activity
CD1 mice [3]; (+)2-methylpiperidine 0.1 mg/kg, IP, 5 min prior to (-)nicotine (FIG. 1B), n=8
  anxiolytic activity in combination with a non-effective dose of (-)nicotine: able to enhance the anxiolytic activity of a non-effective dose of (-)nicotine
[4]; 10 mg/kg, baseline 38.2 ± 0.1
  Rectal temperature 15 min. later: 38.2 ± 0.1 °C
[4]; 100 mg/kg, baseline 38.3 ± 0.1
  Rectal temperature 15 min. later: 38.2 ± 0.2 °C
[4]; 10 or 100 mg/kg, 15 min, as well as 60 and 120 min later
  effect on rectal temperature: without effect
Male CD1 mice; 30 mg/kg
  Deaths in 24 hours: 0/5
Male CD1 mice; 100 mg/kg
  Deaths in 24 hours: 0/5
Male CD1 mice
  tolerability: well tolerated by male CD1 mice, and did not cause any deaths within 24 hours
[5]; (+)2-MP 0.1 mg/kg (so in the source) pretreatment, then (-)nicotine 1.0 mg/kg, * p<0.05
  Rectal temperature: 36.0 ± 0.7 °C
[5]; (+)2-MP 1.0 mg/kg pretreatment, then (-)nicotine 0.3 mg/kg
  Rectal temperature: 37.8 ± 0.2 °C
[5]; (+)2-MP 10.0 mg/kg pretreatment, then (-)nicotine 0.3 mg/kg
  Rectal temperature: 37.5 ± 0.3 °C
[5]; (+)2-MP 10.0 mg/kg pretreatment, then (-)nicotine 1.0 mg/kg, * p<0.05
  Rectal temperature: 36.5 ± 0.5 °C
[5]; (+)2-methylpiperidine 1 and 10 mg/kg, i.p., 3 min. prior to (-)nicotine
  effect on the hypothermic response to (-)nicotine: did not potentiate the hypothermic response to (-)nicotine; also recorded: the hypothermic response of the low dose of (-)nicotine (0.3 mg/kg) was actually attenuated; also recorded: the higher dose of (-)nicotine was unaffected
Rat brain receptor sites; Sloan et al. 1985, listed as (+)isomer of (±)2-methylpiperidine
  enhancement of the binding of nicotine / nicotinic ligands: enhances the binding of nicotinic ligands to rat brain receptor sites
mouse; i.p. (-)nicotine, result in words
  effect on the lethality elicited by (-)nicotine: did not potentiate the lethality; also recorded: does not potentiate (-)nicotine induced acute lethality
mouse; pretreatment 0.1 mg/kg, (-)nicotine 3 mg/kg
  DEATHS/24 hours: 0/6
mouse; pretreatment 0.1 mg/kg, (-)nicotine 6 mg/kg
  DEATHS/24 hours: 1/6
mouse; pretreatment 0.1 mg/kg, (-)nicotine 9 mg/kg
  DEATHS/24 hours: 2/6
mouse; [11]
  DEATHS/24 hours: 0/6
mouse; [12]
  DEATHS/24 hours: 1/8
mouse; [13]
  DEATHS/24 hours: 3/6
Nicotinic receptor [6]; [14]
  Resting Cortical CBF, % of Resting CONTROL: 126 (15) %
Nicotinic receptor [6]; 0.3 mg/kg
  Resting Cortical CBF, % of Resting CONTROL: 133 (22) %
Nicotinic receptor [6]; 1.0 mg/kg
  Resting Cortical CBF, % of Resting CONTROL: 146 (28) %
Nicotinic receptor [6]; 3.0 mg/kg
  Resting Cortical CBF, % of Resting CONTROL: 140 (27) %
Nicotinic receptor [6]; listed as (+)2-MP
  effect on resting CBF: effective in enhancing resting CBF
Nicotinic receptor [6]; listed as (+)-2MP
  effect on resting CBF: enhanced

## CC1CCCCN1 (racemic) [(±)-2-methylpiperidine, reference compound]
Rat brain receptor sites; Sloan et al. 1985
  enhancement of the binding of nicotine / nicotinic ligands: high degree of specificity in enhancing the binding of nicotine in the rat brain

## CC1CCCCN1 (single isomer, unassigned; (-)) [(-)2-methylpiperidine, reference compound]
Nicotinic receptor [1]; [9]
  BF-Elicited CBF Response, % of Resting Cortical CBF: 113 (30) %
Nicotinic receptor [1]; 0.3 mg/kg
  BF-Elicited CBF Response, % of Resting Cortical CBF: 101 (28) %
Nicotinic receptor [1]; 1.0 mg/kg
  BF-Elicited CBF Response, % of Resting Cortical CBF: 88 (26) %
Nicotinic receptor [1]; 3.0 mg/kg
  BF-Elicited CBF Response, % of Resting Cortical CBF: 81 (30) %
Nicotinic receptor [1]
  effect on BF-elicited CBF response: no ability to enhance
[2]; [10]
  Mean Arterial Pressure (MAP): 78 (4) mmHg
[2]; 0.3 mg/kg
  Mean Arterial Pressure (MAP): 83 (4) mmHg
[2]; 1.0 mg/kg
  Mean Arterial Pressure (MAP): 80 (8) mmHg
[2]; 3.0 mg/kg
  Mean Arterial Pressure (MAP): 73 (4) mmHg
Male CD1 mice; 30 mg/kg
  Deaths in 24 hours: 0/5
Male CD1 mice; 100 mg/kg
  Deaths in 24 hours: 0/5
Male CD1 mice
  tolerability: well tolerated by male CD1 mice, and did not cause any deaths within 24 hours
mouse; [11]
  DEATHS/24 hours: 0/6
mouse; [12]
  DEATHS/24 hours: 0/6
mouse; [13]
  DEATHS/24 hours: 4/6
Nicotinic receptor [6]; [14]
  Resting Cortical CBF, % of Resting CONTROL: 99 (32) %
Nicotinic receptor [6]; 0.3 mg/kg
  Resting Cortical CBF, % of Resting CONTROL: 86 (29) %
Nicotinic receptor [6]; 1.0 mg/kg
  Resting Cortical CBF, % of Resting CONTROL: 74 (27) %
Nicotinic receptor [6]; 3.0 mg/kg
  Resting Cortical CBF, % of Resting CONTROL: 70 (30) %
Nicotinic receptor [6]
  effect on resting CBF: no ability to enhance

## CN1CCCC1c1cccnc1 (single isomer, unassigned; (-)) [(-)nicotine, reference compound]
CD1 mice [3]; (-)nicotine 0.1 and 0.3 mg/kg, IP, 15 min before test, p<0.05 vs saline, n=8
  time spent in the open arms (anxiolytic effect): significant increase in the time spent by the mice in the open arms
CD1 mice [3]; (-)nicotine dose used in the combination of FIG. 1B
  anxiolytic activity of the low (-)nicotine dose given alone: non-effective
Male CD1 mice; (-)nicotine 9.0 mg/kg
  death of animals: 4 out of 6
  signs of cholinostimulation: dyspnea and decreased activity
[5]; (-)nicotine 0.3 and 1.0 mg/kg, i.p.
  effect on temperature: significantly lowered temperature
[5]; saline pretreatment, (-)nicotine 0.3 mg/kg, * p<0.05 vs saline (38.3 ± 0.1)
  Rectal temperature: 36.9 ± 0.2 °C
[5]; saline pretreatment, (-)nicotine 1.0 mg/kg, * p<0.05 vs saline (38.3 ± 0.1)
  Rectal temperature: 36.5 ± 0.6 °C
mouse; (-)nicotine 3 mg/kg, saline pretreatment
  DEATHS/24 hours: 0/6
mouse; (-)nicotine 6 mg/kg, saline pretreatment
  DEATHS/24 hours: 2/8
mouse; (-)nicotine 9 mg/kg, saline pretreatment
  DEATHS/24 hours: 4/6
[7]
  LD50: 7.7 mg/kg

## CN1C(=O)CN=C(c2ccccc2)c2cc(Cl)ccc21 [diazepam]
CD1 mice [8]
  time spent in open arms, known anxiolytic drugs: increased in a dose-related way
